How the values were obtained:
[1] = Partition coefficient between crude oil and aqueous phase (microfluidic mixer, functionalized glass fiber separation tube, HPLC UV-Vis); assay type: physicochemical; conditions: tracer at 100 ppm, after mixing with crude oil and separation
Method: In step 2700, the partition coefficient is calculated using the measurement from step 2600 and the reference points and calibration curve from step 2100. The partition coefficient of a substance “A” is defined as
where [A]org is the concentration of substance A in the organic phase, and [A]aq is the concentration of substance A in the water phase, with equal volumes of organic and aqueous phases at equilibrium. The detection system 1300 and the calibration curve from the step 2100 can provide [A]aq. [A]total can be obtained from the step 2200 and [A]org can be calculated as [A]org=[A]total−[A]aq.
A partition coefficient detection system was constructed using a teardrop microfluidic mixer (micronit), a functionalized glass fiber packed capillary tube oil/water phase separator, and a 1D HPLC UV-Vis detector (Agilent, 1290 Infinity HPLC system).
To prepare the functionalized glass fiber packed capillary tube oil/water phase separator, a hydrophobic fiber filtration material was prepared by chemically functionalizing surfaces of glass wool. […] The washed glass wool was immersed in 20 mL Piranha solution (3:1 mixture of concentrated sulfuric acid and 30% hydrogen peroxide) for 30 mins, then the treated glass wool was removed from the Piranha solution and rinsed with DI water until the pH value of the water used for rinsing was near neutral pH (pH=7±1), as monitored by a pH meter. […]

[2] = Hansch, C. et al. (1995); cited from earlier work

Structure (SMILES) | partitioning behavior between crude oil and aqueous phase (FIG. 4) [1] | partition coefficient (log P), value from the literature [2]
OCc1ccc(Cl)cc1 [4-CBA, 4-chlorobenzyl alcohol] | did show partitioning behavior | 1.96
O=C(O)c1ccccc1F [2-fluorobenzoic acid] | did not show partitioning behavior | –
